Source: US8815260B1, “Treatment of restenosis and stenosis with dasatinib” (University of South Florida, priority 2005, dated 2014)
Read-outs that look alike come from different tables or passages of the source.

How the values were obtained:
[1] = cited from earlier work
STAT3, Akt, Erk2 [2] = assay: PDGF-stimulated activation of STAT3, Akt and Erk2 in A10 cells (immunoblotting); assay type: cell-based, rat
PDGFRβ = PDGFRβ (Rattus norvegicus, UniProt Q05030); conditions: A10 cells
IGF-1R = IGF-1R (Rattus norvegicus, UniProt P24062); conditions: A10 cells, up to 50 nM, IGF-1 10 ng/ml 10 min
IGF-1R, sequence (P24062 31-1370): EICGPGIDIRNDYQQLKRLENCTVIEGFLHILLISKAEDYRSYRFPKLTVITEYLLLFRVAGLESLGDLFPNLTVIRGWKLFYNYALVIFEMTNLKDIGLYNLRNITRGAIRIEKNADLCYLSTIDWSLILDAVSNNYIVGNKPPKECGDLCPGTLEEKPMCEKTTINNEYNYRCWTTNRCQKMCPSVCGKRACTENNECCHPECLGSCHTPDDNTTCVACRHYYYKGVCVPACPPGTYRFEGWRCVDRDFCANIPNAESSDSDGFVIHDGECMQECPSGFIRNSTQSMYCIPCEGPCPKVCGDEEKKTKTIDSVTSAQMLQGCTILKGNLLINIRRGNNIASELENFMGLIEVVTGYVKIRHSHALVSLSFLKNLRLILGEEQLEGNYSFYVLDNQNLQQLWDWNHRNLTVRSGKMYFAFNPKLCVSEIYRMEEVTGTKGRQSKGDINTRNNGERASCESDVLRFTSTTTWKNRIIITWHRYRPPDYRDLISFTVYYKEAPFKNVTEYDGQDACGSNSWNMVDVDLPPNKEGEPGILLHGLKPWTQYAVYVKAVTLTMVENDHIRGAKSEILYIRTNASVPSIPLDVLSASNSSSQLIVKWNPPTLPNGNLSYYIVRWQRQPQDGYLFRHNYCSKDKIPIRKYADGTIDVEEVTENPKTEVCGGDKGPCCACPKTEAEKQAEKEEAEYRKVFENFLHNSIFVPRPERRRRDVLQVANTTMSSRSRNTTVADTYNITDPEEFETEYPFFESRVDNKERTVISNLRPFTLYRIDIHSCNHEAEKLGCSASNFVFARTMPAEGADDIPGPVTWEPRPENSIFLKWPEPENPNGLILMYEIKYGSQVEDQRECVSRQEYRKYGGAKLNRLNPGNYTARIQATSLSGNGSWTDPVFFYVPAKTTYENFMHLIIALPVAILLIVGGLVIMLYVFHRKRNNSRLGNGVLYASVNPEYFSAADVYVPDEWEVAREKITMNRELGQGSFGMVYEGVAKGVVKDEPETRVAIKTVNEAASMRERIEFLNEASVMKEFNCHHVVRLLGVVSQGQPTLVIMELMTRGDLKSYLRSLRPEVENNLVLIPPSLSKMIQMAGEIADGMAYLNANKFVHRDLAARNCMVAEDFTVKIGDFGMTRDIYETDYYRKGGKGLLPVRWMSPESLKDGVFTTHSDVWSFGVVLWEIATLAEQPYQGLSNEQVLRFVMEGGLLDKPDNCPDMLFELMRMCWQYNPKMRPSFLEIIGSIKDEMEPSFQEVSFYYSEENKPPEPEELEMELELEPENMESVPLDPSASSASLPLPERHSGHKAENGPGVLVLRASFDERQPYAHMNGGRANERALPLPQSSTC

STAT3, Akt, Erk2 [3] = assay: PDGF-stimulated activation of STAT3, Akt and Erk2 in primary human AoSMCs; assay type: cell-based; conditions: 0-50 nM, not reduced below basal activation state
A10 cells = assay: Flow cytometric analysis of cell cycle phase distribution, PDGF-treated A10 cells; assay type: cell-based, rat; conditions: PDGF 10 ng/ml plus 50 nM
PDGFR = conditions: Buchdunger et al., 1996; Sanz-Gonzalez et al., 2004; cited from earlier work
porcine SMC = conditions: Banai et al., 1998; cited from earlier work

PDGFRβ, sequence (Q05030 32-1097): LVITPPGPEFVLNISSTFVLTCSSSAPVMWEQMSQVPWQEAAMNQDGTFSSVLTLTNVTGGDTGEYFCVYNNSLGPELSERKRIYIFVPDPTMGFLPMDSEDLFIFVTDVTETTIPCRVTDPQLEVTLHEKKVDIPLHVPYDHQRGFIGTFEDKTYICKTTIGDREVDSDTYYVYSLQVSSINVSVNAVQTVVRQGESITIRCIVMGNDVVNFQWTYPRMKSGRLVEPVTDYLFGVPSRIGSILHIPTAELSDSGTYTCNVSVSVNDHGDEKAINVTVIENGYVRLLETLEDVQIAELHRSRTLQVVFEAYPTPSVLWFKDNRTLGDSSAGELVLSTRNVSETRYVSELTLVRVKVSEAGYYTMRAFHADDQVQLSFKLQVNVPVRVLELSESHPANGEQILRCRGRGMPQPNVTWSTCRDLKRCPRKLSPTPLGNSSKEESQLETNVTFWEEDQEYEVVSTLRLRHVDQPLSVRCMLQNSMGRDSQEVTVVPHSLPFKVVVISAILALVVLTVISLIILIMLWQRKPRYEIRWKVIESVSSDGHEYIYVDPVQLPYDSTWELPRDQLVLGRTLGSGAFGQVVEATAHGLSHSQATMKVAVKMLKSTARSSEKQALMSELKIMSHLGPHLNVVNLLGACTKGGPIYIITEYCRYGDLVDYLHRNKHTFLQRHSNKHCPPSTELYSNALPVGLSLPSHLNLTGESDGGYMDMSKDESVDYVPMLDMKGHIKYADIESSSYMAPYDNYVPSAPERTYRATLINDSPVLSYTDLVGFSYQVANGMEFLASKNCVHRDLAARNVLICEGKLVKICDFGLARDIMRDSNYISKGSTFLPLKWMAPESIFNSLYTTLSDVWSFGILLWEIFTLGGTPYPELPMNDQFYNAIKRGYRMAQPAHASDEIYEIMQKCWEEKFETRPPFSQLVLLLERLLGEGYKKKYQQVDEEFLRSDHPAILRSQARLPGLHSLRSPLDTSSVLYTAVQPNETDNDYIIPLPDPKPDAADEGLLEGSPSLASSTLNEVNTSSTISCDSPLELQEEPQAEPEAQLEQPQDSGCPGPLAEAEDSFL

In the case of `Cc1nc(Nc2ncc(C(=O)Nc3c(C)cccc3Cl)s2)cc(N2CCN(CCO)CC2)n1` [BMS-354825, N-(2-chloro-6-methylphenyl)-2-[[6-[4-[(2-hydroxyethyl)-1-piperazinyl]-2-methyl-4-pyrimidinyl]amino]-5-thiazolecarboxamide, monohydrate], the Cmax ([1]; BMS-354825 dosing for CML, oral, read-out: Cmax) is given as 60 to 120 nM, the Cmax ([1]; oral delivery route, 140 mg/day) is given as 30 to 60 ng/mL and the “PDGF-stimulated activation of STAT3, Akt and Erk2 (activation-specific phosphorylation)” value (STAT3, Akt, Erk2 [2]; 50 nM, PDGF-BB 5 ng/ml) is given as “inhibited”. For the same compound, the “PDGF-stimulated PDGFRβ tyrosine phosphorylation” value (PDGFRβ; 50 nM, PDGF-BB 5 ng/ml, all time points (0-30 min)) was “effectively blocked”, the “inhibition of IGF-1R tyrosine phosphorylation” value (IGF-1R) was “No detectable inhibition” and the “PDGF-induced further activation of STAT3” value (STAT3, Akt, Erk2 [3]) was “blocked”. For the same compound, the “percentage of cells in G2 phase” value (A10 cells; 16 h (PDGF alone 10.74%, no PDGF 0.99%)) was 3.75%, the “percentage of cells in S phase” value (A10 cells; 16 h (PDGF alone 23.83%, no PDGF 10.4%)) was 7.99% and the “percentage of cells in G1 phase” value (A10 cells; 16 h (PDGF alone 65.44%, no PDGF 88.65%)) was 88.29%.
In the case of `Cc1ccc(NC(=O)c2ccc(CN3CCN(C)CC3)cc2)cc1Nc1nccc(-c2cccnc2)n1` [imatinib], the “concentrations required for inhibition of PDGFR in cell-based assays” value (PDGFR) is given as “micromolar concentrations”, the “concentration giving complete inhibition of PDGF-stimulated Akt and Erk2 activation” value (STAT3, Akt, Erk2 [2]; PDGF-BB 5 ng/ml 5 min) is given as 5 µM and the “decrease in STAT3 tyrosine phosphorylation” value (STAT3, Akt, Erk2 [2]; PDGF-BB 5 ng/ml 5 min, relative to the 5 μM needed for Akt and Erk2) is given as “appeared at lower concentrations”. The “concentration required for the same level (complete block) of PDGFR inhibition” value (PDGFRβ; parallel experiments, PDGF-BB 5 ng/ml 5 min) was 5 µM.
For `Cc1cc2ncc(-c3ccccc3)nc2cc1C` [AG-1295], the “inhibition of porcine SMC proliferation, nature of the effect” value (porcine SMC) is given as “reversible and not toxic”.
